One may read the melting point as the temperature of the solid-liquid transition.

On to `CCCC1=C(C(=O)OCC)C(c2ccccc2Cl)c2c[nH]nc2N1` (stereo not shown) [Example 27, Ethyl 4-(2-chlorophenyl)-4,7-dihydro-6-propyl-2H-pyrazolo[3,4-b]pyridine-5-carboxylate], for which the melting point lay within 202 to 205 °C.

Take `CCCC1=C(C(=O)OC)C(c2ccccc2Cl)c2c[nH]nc2N1` (stereo not shown) [Example 28, Methyl 4-(2-chlorophenyl)-4,7-dihydro-6-propyl-2H-pyrazolo[3,4-b]pyridine-5-carboxylate]: the melting point lay in the range of 203 to 207 °C. The same measure for `CCCC1=C(C(=O)OCC)C(c2ccccc2Br)c2c[nH]nc2N1` (stereo not shown) [Example 29, Ethyl 4-(2-bromophenyl)-4,7-dihydro-6-propyl-2H-pyrazolo[3,4-b]pyridine-5-carboxylate]: 223 °C; for `CCCC1=C(C(=O)OCC)C(c2ccccc2C)c2c[nH]nc2N1` (stereo not shown) [Example 30, Ethyl 4,7-dihydro-4-(2-methylphenyl)-6-propyl-2H-pyrazolo[3,4-b]pyridine-5-carboxylate]: 178 °C; for `CCCC1=C(C(=O)OCC)C(c2ccccc2C(F)(F)F)c2c[nH]nc2N1` (stereo not shown) [Example 31, Ethyl 4,7-dihydro-6-propyl-4-(2-trifluoromethylphenyl)-2H-pyrazolo[3,4-b]pyridine-5-carboxylate]: 198 to 202 °C. Under `CCCC1=C(C(=O)OCC)C(c2ccccc2OC)c2c[nH]nc2N1` (stereo not shown) [Example 32, Ethyl 4,7-dihydro-4-(2-methoxyphenyl)-6-propyl-2H-pyrazolo[3,4-b]pyridine-5-carboxylate] stands 169 °C; under `CCCC1=C(C(=O)OCC)C(c2ccccc2OCC)c2c[nH]nc2N1` (stereo not shown) [Example 33, Ethyl 4-(2-ethoxyphenyl)-4,7-dihydro-6-propyl-2H-pyrazolo[3,4-b]pyridine-5-carboxylate], 203 °C. As to `CCCOc1ccccc1C1C(C(=O)OCC)=C(CCC)Nc2n[nH]cc21` (stereo not shown) [Example 34, Ethyl 4,7-dihydro-4-(2-propoxyphenyl)-6-propyl-2H-pyrazolo[3,4-b]pyridine-5-carboxylate], the melting point came out at 205 °C. The same measure for `CCCC1=C(C(=O)OCC)C(c2ccccc2OC(C)C)c2c[nH]nc2N1` (stereo not shown) [Example 35, Ethyl 4,7-dihydro-4-(2-isopropyloxyphenyl)-6-propyl-2H-pyrazolo[3,4-b]pyridine-5-carboxylate]: 210 °C; for `CCCCOc1ccccc1C1C(C(=O)OCC)=C(CCC)Nc2n[nH]cc21` (stereo not shown) [Example 36, Ethyl 4-(2-butoxyphenyl)-4,7-dihydro-6-propyl-2H-pyrazolo[3,4-b]pyridine-5-carboxylate]: 171 °C. The same measure for `CCCC1=C(C(=O)OCC)C(c2ccccc2OC2CCCC2)c2c[nH]nc2N1` (stereo not shown) [Example 37, Ethyl 4-(2-cyclopentyloxyphenyl)-4,7-dihydro-6-propyl-2H-pyrazolo[3,4-b]pyridine-5-carboxylate]: 195 °C.

Molecule `CCCC1=C(C(=O)OCC)C(c2ccccc2OCc2ccccc2)c2c[nH]nc2N1` (stereo not shown) [Example 38, Ethyl 4-(2-benzyloxyphenyl)-4,7-dihydro-6-propyl-2H-pyrazolo[3,4-b]pyridine-5-carboxylate] displayed a melting point of 128 °C. The same measure for `CCCC1=C(C(=O)OCC)C(c2ccccc2SC)c2c[nH]nc2N1` (stereo not shown) [Example 39, Ethyl 4,7-dihydro-4-(2-methylthiophenyl)-6-propyl-2H-pyrazolo[3,4-b]pyridine-5-carboxylate]: 198 °C. The molecule `CCCC1=C(C(=O)OCC)C(c2ccccc2[S+](C)[O-])c2c[nH]nc2N1` (stereo not shown) [Example 40, Ethyl 4,7-dihydro-4-(2-methylsulfinylphenyl)-6-propyl-2H-pyrazolo[3,4-b]pyridine-5-carboxylate] displayed a melting point of 216 °C. The molecule `CCCC1=C(C(=O)OCC)C(c2ccccc2[N+](=O)[O-])c2c[nH]nc2N1` (stereo not shown) [Example 41, Ethyl 4,7-dihydro-4-(2-nitrophenyl)-6-propyl-2H-pyrazolo[3,4-b]pyridine-5-carboxylate] came in with a melting point of 218 °C. Under `CCCC1=C(C(=O)OCC)C(c2ccccc2C#N)c2c[nH]nc2N1` (stereo not shown) [Example 42, Ethyl 4-(2-cyanophenyl)-4,7-dihydro-6-propyl-2H-pyrazolo[3,4-b]pyridine-5-carboxylate] stands 211 °C; under `CCCC1=C(C(=O)OCC)C(c2cccc(F)c2F)c2c[nH]nc2N1` (stereo not shown) [Example 43, Ethyl 4-(2,3-difluorophenyl)-4,7-dihydro-6-propyl-2H-pyrazolo[3,4-b]pyridine-5-carboxylate], 207 °C; under `CCCC1=C(C(=O)OCC)C(c2cccc(Cl)c2Cl)c2c[nH]nc2N1` (stereo not shown) [Example 44, Ethyl 4-(2,3-dichlorophenyl)-4,7-dihydro-6-propyl-2H-pyrazolo[3,4-b]pyridine-5-carboxylate], 220 °C.

Molecule `CCCC1=C(C(=O)OCC)C(c2cccc(F)c2C)c2c[nH]nc2N1` (stereo not shown) [Example 45, Ethyl 4-(3-fluoro-2-methylphenyl)-4,7-dihydro-6-propyl-2H-pyrazolo[3,4-b]pyridine-5-carboxylate] registered a melting point of 159 to 162 °C. `CCCC1=C(C(=O)OCC)C(c2cccc(OC)c2OC)c2c[nH]nc2N1` (stereo not shown) [Example 46, Ethyl 4-(2,3-dimethoxyphenyl)-4,7-dihydro-6-propyl-2H-pyrazolo[3,4-b]pyridine-5-carboxylate]: the melting point fell in the range of 205 to 206 °C. On to `CCCC1=C(C(=O)OCC)C(c2cccc(C(F)(F)F)c2Cl)c2c[nH]nc2N1` (stereo not shown) [Example 47, Ethyl 4-(2-chloro-3-trifluoromethylphenyl)-4,7-dihydro-6-propyl-2H-pyrazolo[3,4-b]pyridine-5-carboxylate], for which the melting point fell in the range of 236 to 238 °C. Take `CCCC1=C(C(=O)OCC)C(c2cc(F)ccc2F)c2c[nH]nc2N1` (stereo not shown) [Example 49, Ethyl 4-(2,5-difluorophenyl)-4,7-dihydro-6-propyl-2H-pyrazolo[3,4-b]pyridine-5-carboxylate]: the melting point lay within 168 to 169 °C. The same measure for `CCCC1=C(C(=O)OCC)C(c2cc(Cl)ccc2Cl)c2c[nH]nc2N1` (stereo not shown) [Example 50, Ethyl 4-(2,5-dichlorophenyl)-4,7-dihydro-6-propyl-2H-pyrazolo[3,4-b]pyridine-5-carboxylate]: 162 °C; for `CCCC1=C(C(=O)OCC)C(c2cc(F)ccc2OC)c2c[nH]nc2N1` (stereo not shown) [Example 51, Ethyl 4-(5-fluoro-2-methoxyphenyl)-4,7-dihydro-6-propyl-2H-pyrazolo[3,4-b]pyridine-5-carboxylate]: 164 to 167 °C. Under `CCCC1=C(C(=O)OCC)C(c2cc(OC)ccc2Cl)c2c[nH]nc2N1` (stereo not shown) [Example 52, Ethyl 4-(2-chloro-5-methoxyphenyl)-4,7-dihydro-6-propyl-2H-pyrazolo[3,4-b]pyridine-5-carboxylate] stands 182 °C; under `CCCC1=C(C(=O)OCC)C(c2cc(OC)ccc2OC)c2c[nH]nc2N1` (stereo not shown) [Example 53, Ethyl 4-(2,5-dimethoxyphenyl)-4,7-dihydro-6-propyl-2H-pyrazolo[3,4-b]pyridine-5-carboxylate], 169 to 170 °C; under `CCCC1=C(C(=O)OCC)C(c2c(F)cccc2F)c2c[nH]nc2N1` (stereo not shown) [Example 54, Ethyl 4-(2,6-difluorophenyl)-4,7-dihydro-6-propyl-2H-pyrazolo[3,4-b]pyridine-5-carboxylate], 185 °C.

`CCCC1=C(C(=O)OCC)C(c2c(Cl)cccc2Cl)c2c[nH]nc2N1` (stereo not shown) [Example 55, Ethyl 4-(2,6-dichlorophenyl)-4,7-dihydro-6-propyl-2H-pyrazolo[3,4-b]pyridine-5-carboxylate] had a melting point of 202 °C.

On to `CCCC1=C(C(=O)OCC)C(c2c(F)cccc2Cl)c2c[nH]nc2N1` (stereo not shown) [Example 56, Ethyl 4-(2-chloro-6-fluorophenyl)-4,7-dihydro-6-propyl-2H-pyrazolo[3,4-b]pyridine-5-carboxylate], for which the melting point was 180 to 183 °C. `CCCC1=C(C(=O)OCC)C(c2ccco2)c2c[nH]nc2N1.O=C(O)/C=C\C(=O)O` (stereo not shown) [Example 59, Ethyl 4-(furan-2-yl)-4,7-dihydro-6-propyl-2H-pyrazolo[3,4-b]pyridine-5-carboxylate maleate] returned a melting point of 108 to 111 °C. With `CCCC1=C(C(=O)OCC)C(c2ccoc2C)c2c[nH]nc2N1` (stereo not shown) [Example 61, Ethyl 4,7-dihydro-4-(2-methylfuran-3-yl)-6-propyl-2H-pyrazolo[3,4-b]pyridine-5-carboxylate], the melting point is 123 to 125 °C. As for `CCCC1=C(C(=O)OCC)C(c2cccs2)c2c[nH]nc2N1.O=C(O)/C=C\C(=O)O` (stereo not shown) [Example 62, Ethyl 4,7-dihydro-6-propyl-4-(thiophen-2-yl)-2H-pyrazolo[3,4-b]pyridine-5-carboxylate maleate], the melting point was in the range of 129 to 131 °C.

Molecule `CCCC1=C(C(=O)OCC)C(c2sccc2C)c2c[nH]nc2N1` (stereo not shown) [Example 63, Ethyl 4,7-dihydro-4-(3-methylthiophen-2-yl)-6-propyl-2H-pyrazolo[3,4-b]pyridine-5-carboxylate] gave a melting point of 125 °C.

As to `CCCC1=C(C(=O)OCC)C(c2ccc(Cl)s2)c2c[nH]nc2N1.O=C(O)/C=C\C(=O)O` (stereo not shown) [Example 64, Ethyl 4-(5-chlorothiophen-2-yl)-4,7-dihydro-6-propyl-2H-pyrazolo[3,4-b]pyridine-5-carboxylate maleate], the melting point is 129 to 131 °C. The same measure for `CCCC1=C(C(=O)OCC)C(c2ccsc2)c2c[nH]nc2N1.O=C(O)/C=C\C(=O)O` (stereo not shown) [Example 65, Ethyl 4,7-dihydro-6-propyl-4-(thiophen-3-yl)-2H-pyrazolo[3,4-b]pyridine-5-carboxylate maleate]: 141 to 143 °C; for `CCCC1=C(C(=O)OCC)C(c2cccc3ccccc23)c2c[nH]nc2N1` (stereo not shown) [Example 66, Ethyl 4,7-dihydro-4-(naphthalen-1-yl)-6-propyl-2H-pyrazolo[3,4-b]pyridine-5-carboxylate]: 182 °C; for `CCCC1=C(C(=O)OCC)C(c2ccc3ccccc3c2)c2c[nH]nc2N1.O=C(O)/C=C\C(=O)O` (stereo not shown) [Example 67, Ethyl 4,7-dihydro-4-(naphthalen-2-yl)-6-propyl-2H-pyrazolo[3,4-b]pyridine-5-carboxylate maleate]: 136 to 138 °C.

The values above are taken from US6977262B2, “Dihydropyrazolopyridine compounds and pharmaceutical use thereof” (Mitsubishi Pharma Corporation, priority 2001, dated 2005).
